Reference: patent US20110183978A1, “Phenylpyri(mi)dinylazoles” (Bayer CropScience AG, priority 2009, published 2011)
Where two headings read alike, the source gives them in different places.

Key:
Pyrenophora teres = assay: Example E: in vivo test on Pyrenophora teres (barley net blotch disease); settings: barley plants sprayed 24 hours before inoculation, scored after 12 days; for pest or weed control at 500 ppm: Pyrenophora teres, 288 h, read-out: % Wirkungsgrad
Description: In Vivo Test on Pyrenophora Teres (Barley Net Blotch Disease) An aqueous suspension of the active substance was prepared by homogenization of a mixture of acetone/Tween/dimethyl sulphoxide and subsequent dilution with water to the desired concentration. Barley plants (variety: Plaisant) are sown in cultivation dishes on a peat-pozzolanic earth substrate (50/50) at 12° C. and sprayed at the first-leaf stage (10 cm size) with the aqueous suspension described above. As a control, plants are sprayed with an aqueous solution with no active substance. After 24 hours the plants are inoculated by spraying with an aqueous suspension of Pyrenophora teres spores (12,000 spores per ml). The spores are derived from a 12 day-old culture. […] After 12 days they are scored in comparison with the control plants.

Fusarium proliferatum = assay: Example I: production of fumonisin FB1 by Fusarium proliferatum (microtitre plates); type: cell-based; settings: for inhibition at 50 µM: 120 h
Peronospora parasitica = assay: Example A: in vivo test on Peronospora parasitica (downy mildew on white cabbage); settings: cabbage plants sprayed 24 hours before inoculation, scored after 5 days; for pest or weed control at 500 ppm: Hyaloperonospora parasitica, 120 h, read-out: % Wirkungsgrad
Description: In Vivo Test on Peronospora Parasitica (Downy Mildew on White Cabbage) An aqueous suspension of the active substance was prepared by homogenization of a mixture of acetone/Tween (dispersant)/dimethyl sulphoxide (DMSO) and subsequent dilution with water to the desired concentration. Cabbage plants (variety: Eminence) are sown in cultivation dishes on a peat-pozzolanic earth substrate (50/50) at 18-20° C. and sprayed at the cotyledon stage with the aqueous suspension described above. As a control, plants are sprayed with an aqueous solution with no active substance. After 24 hours, the plants are inoculated by spraying with an aqueous suspension of Peronospora parasitica spores (50,000 spores per ml). The spores are derived from infected plants. The inoculated cabbage plants are incubated for 5 days at ca. 20° C. in a moist atmosphere. After 5 days, they are scored in comparison with the control plants.

Sphaerotheca fuliginea [1] = assay: Example D: in vivo test on Sphaerotheca fuliginea (powdery mildew on cucumber); settings: Podosphaera fuliginea, 288 h, cucumber plants sprayed 24 hours before inoculation, scored after 12 days, read-out: % Wirkungsgrad
Method in brief: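 Scoring took place 12 days after spore inoculation (100,000 spores/ml, at ca. 20/25° C., 60/70% RH) and was made against plants sprayed without active substance. Inoculation followed by 24 hours a spray of water-diluted acetone/Tween/DMSO compound suspension onto Z10 cotyledon-stage cucumbers.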

Rhizoctonia solani = assay: Example W: in vivo test on Rhizoctonia solani (sheath blight in rice/protective); settings: 96 h, rice, protective, 250 ppm active substance, assessed 4 days after inoculation, read-out: % Activity level
Description: Solvent: 28.5 parts by weight acetone Emulsifier: 1.5 parts by weight alkylaryl polyglycol ethers For the preparation of a suitable active substance preparation, 1 part by weight of active substance is mixed with the stated quantities of solvent and emulsifier and the concentrate is diluted to the desired concentration with water. For the testing for protective activity, young rice plants are sprayed with the active substance preparation at the stated application dosage. One day after the treatment, the plants are inoculated with hyphae of Rhizoctonia solani. […] 4 days after the inoculation, the assessment takes place.

Alternaria solani = assay: Example M: in vivo test on Alternaria solani (leaf blotch disease/tomato/protective); settings: 168 h, tomato, protective, 500 ppm active substance, assessed 7 days after inoculation, read-out: % Wirkungsgrad (activity level)
Method in brief: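 Alternaria solani infection on tomato scored 7 days post-inoculation. Before inoculation, young plants received a protective spray at the stated application dose; formulation was compound mixed with N,N-dimethylformamide and emulsifier, water-diluted.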

Pyricularia oryzae = assay: whole plant or invertebrate; type: in vivo; settings: 120 h, read-out: % Activity level
Plasmopara viticola = assay: Example N: in vivo test on Plasmopara viticola (downy mildew, vine/protective); settings: 144 h, vine, protective, assessment 6 days after inoculation, read-out: % Wirkungsgrad
Method in brief: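 Assessment of downy mildew on vines took place 6 days post-inoculation, after 1 day of moist incubation. Before infection, the young plants received a protective spray of compound emulsified with alkylaryl polyglycol ethers and diluted with water to the stated application rate.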

Venturia inaequalis = assay: Example O: in vivo test on Venturia inaequalis (apple scab/protective); settings: 240 h, protective, assessment 10 days after inoculation, read-out: % Wirkungsgrad
Method in brief: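 Young plants received a preventive spray of compound formulated as an emulsifier-containing aqueous dilution at the given application rate, then were inoculated with apple scab fungus. Disease was scored 10 days post-inoculation.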

Leptosphaeria nodorum = assay: Example Q: in vivo test on Leptosphaeria nodorum (glume blotch in wheat/protective); settings: Parastagonospora nodorum, 192 h, wheat, protective, assessment 8 days after inoculation, read-out: % Wirkungsgrad
Description: (§1) Solvent: 49 parts by weight N,N-dimethylacetamide Emulsifier: 1 part by weight alkylaryl polyglycol ethers For the preparation of a suitable active substance preparation, 1 part by weight of active substance is mixed with the stated quantities of solvent and emulsifier and the concentrate is diluted to the desired concentration with water. For the testing for protective activity, young plants are sprayed with the active substance preparation at the stated application dosage. After drying of the spray coating, the plants are sprayed with spores with a spore suspension of Leptosphaeria nodorum. […] 8 days after the inoculation, the assessment takes place.

[2] = test system: Fusarium nivale (var. majus); assay: whole plant or invertebrate; type: in vivo; settings: Microdochium nivale, in Triticum aestivum, 120 h, read-out: % Wirkungsgrad (activity level)
Fusarium graminearum [3] = assay: whole plant or invertebrate; type: in vivo; settings: in Hordeum vulgare, 120 h, read-out: % Wirkungsgrad (activity level)
Botrytis cinerea = assay: Example P: in vivo test on Botrytis cinerea (gray mould on bean/protective); settings: 48 h, bean, protective, 250 ppm active substance, assessed 2 days after inoculation, read-out: % Wirkungsgrad (activity level)
Method in brief: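 Infection blotch size on leaves was scored 2 days after placing 2 Botrytis-colonised agar pieces per leaf. Inoculation followed drying of a protective spray applied to young plants at the stated dosage. Spray was prepared by diluting compound with solvent and alkylaryl polyglycol ether emulsifier in water.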

Sphaerotheca fuliginea [4] = assay: Example L: in vivo test on Sphaerotheca fuliginea (powdery mildew on cucumber/protective); settings: Podosphaera fuliginea, 168 h, cucumber, protective, assessment 7 days after inoculation, read-out: % Wirkungsgrad
Method in brief: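 Young cucumber plants sprayed at stated dosage with compound in DMF/alkylaryl polyglycol ether emulsifier diluted in water; inoculated with S. fuliginea spores one day later. Kept in greenhouse at 70% relative humidity, 23° C; protective activity assessed 7 days after inoculation.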

Septoria tritici = assay: Example R: in vivo test on Septoria tritici (leaf blotch in wheat/protective); settings: Zymoseptoria tritici, 504 h, wheat, protective, 1000 ppm active substance, assessed 21 days after inoculation, read-out: % Wirkungsgrad (activity level)
Description: as §1, with “with” for “with spores with”, “Septoria tritici.” for “Leptosphaeria nodorum.”, “21” for “8”

Cochliobolus miyabeanus = assay: Example X: in vivo test on Cochliobolus miyabeanus (brown spot disease, rice/protective); settings: Bipolaris oryzae, 96 h, read-out: % Activity level
Rhynchosporium secalis = assay: Example S: in vivo test on Rhynchosporium secalis (leaf scald in barley/protective); settings: 336 h, barley, protective, 1000 ppm active substance, assessed 14 days after inoculation, read-out: % Wirkungsgrad (activity level)
Description: as §1, with “Rhynchosporium secalis.” for “Leptosphaeria nodorum.”, “14” for “8”

Fusarium graminearum [5] = assay: microbe, parasite or virus in culture; type: cell-based
Aspergillus parasiticus = assay: microbe, parasite or virus in culture; type: cell-based; settings: 168 h
[6] = LogPA (logP of the stated pure compound or, in a mixture, of the main isomer, 1-substituted 3-aryl-1H-pyrazole)
[7] = 72 h, read-out: % Inhibition des Pilzwachstums bei 50 μM
[8] = 168 h, read-out: % Inhibition der DON/AcDON produktion bei 50 μM
[9] = Fusarium proliferatum growth, OD 620, 5 days, read-out: % Inhibition des Pilzwachstums bei 50 μM
[10] = Fusarium proliferatum, 5 days at 20° C., HPLC-MS/MS, read-out: % Inhibition der FB1 produktion bei 50 μM

## CC(C)C(=O)Nc1cc(-c2cn(C3CCCCO3)nc2-c2ccc(F)cc2)ccn1 (stereo not drawn) [Compound 21]
Pyrenophora teres; 500 ppm
  % Wirkungsgrad: 73%
Fusarium proliferatum; 5 days at 20° C., HPLC-MS/MS
  % Inhibition der FB1 produktion bei 50 μM: 100%
Fusarium proliferatum; Fusarium proliferatum growth, OD 620, 5 days
  % Inhibition des Pilzwachstums bei 50 μM: 55%
Peronospora parasitica; 500 ppm
  % Wirkungsgrad: 100%

## CC(C)Cn1ncc(-c2ccncc2)c1-c1ccc(F)cc1 [Compound 24]
physchem; [6]
  chromatographic logP: 1.59
Pyrenophora teres
  pest or weed control at 500 ppm: 92%
Sphaerotheca fuliginea [1]
  pest or weed control at 500 ppm: 88%

## CC(C)=CCn1cc(-c2ccncc2)c(-c2ccc(F)cc2)n1 [Compound 30]
physchem; [6]
  chromatographic logP: 2.11
Rhizoctonia solani
  pest or weed control at 250 ppm: 95%
Alternaria solani
  pest or weed control at 500 ppm: 90%
Pyricularia oryzae
  pest or weed control at 250 ppm: 80%

## CC(C)n1cc(-c2ccncc2)c(-c2ccc(F)cc2)n1 [Compound 89]
Plasmopara viticola
  pest or weed control at 100 ppm: 73%
physchem; [6]
  chromatographic logP: 1.16
Venturia inaequalis
  pest or weed control at 100 ppm: 100%
Leptosphaeria nodorum
  pest or weed control at 1000 ppm: 83%
[2]
  pest or weed control at 1000 ppm: 92%
Fusarium graminearum [3]
  pest or weed control at 1000 ppm: 100%
Botrytis cinerea
  pest or weed control at 250 ppm: 100%
Sphaerotheca fuliginea [4]
  pest or weed control at 500 ppm: 88%
Rhizoctonia solani
  pest or weed control at 250 ppm: 92%
Alternaria solani
  pest or weed control at 500 ppm: 89%
Septoria tritici
  pest or weed control at 1000 ppm: 100%
Cochliobolus miyabeanus
  pest or weed control at 250 ppm: 85%

## Fc1ccc(-c2nn(CC(F)F)cc2-c2ccncc2)cc1 [Compound 169]
Plasmopara viticola
  pest or weed control at 100 ppm: 96%
physchem; LogPA
  chromatographic logP: 1
Venturia inaequalis
  pest or weed control at 100 ppm: 99%
Leptosphaeria nodorum
  pest or weed control at 1000 ppm: 100%
[2]
  pest or weed control at 1000 ppm: 71%
Rhynchosporium secalis
  pest or weed control at 1000 ppm: 100%
Fusarium graminearum [3]
  pest or weed control at 1000 ppm: 100%
Botrytis cinerea
  pest or weed control at 250 ppm: 100%
Sphaerotheca fuliginea [4]
  pest or weed control at 500 ppm: 89%
Rhizoctonia solani
  pest or weed control at 250 ppm: 100%
Fusarium graminearum [5]; [7]
  inhibition at 50 µM: 101%
Fusarium graminearum [5]; [8]
  inhibition at 50 µM: 100%
Septoria tritici
  pest or weed control at 1000 ppm: 100%

## CC(C)=CCn1cc(-c2ccncc2)c(-c2c(F)cccc2F)n1 [Compound 7]
physchem; [6]
  chromatographic logP: 1.69
Pyrenophora teres
  pest or weed control at 500 ppm: 73%

## C=CCNc1nccc(-c2cn(CC(C)C)nc2-c2ccc(F)cc2)n1 [Compound 150]
physchem; [6]
  chromatographic logP: 2.46
Pyrenophora teres
  pest or weed control at 500 ppm: 86%
Sphaerotheca fuliginea [1]
  pest or weed control at 500 ppm: 96%
Sphaerotheca fuliginea [4]
  pest or weed control at 500 ppm: 93%
Alternaria solani
  pest or weed control at 500 ppm: 95%
Peronospora parasitica
  pest or weed control at 500 ppm: 100%
Fusarium graminearum [5]; [7]
  inhibition at 50 µM: 97%
Fusarium graminearum [5]; [8]
  inhibition at 50 µM: 99%

## CC(C)Cn1cc(-c2ccnc(NC(=O)C(C)C)c2)c(-c2ccc(F)cc2)n1 [Compound 87]
physchem; [6]
  chromatographic logP: 2.89
Venturia inaequalis
  pest or weed control at 100 ppm: 95%
Leptosphaeria nodorum
  pest or weed control at 1000 ppm: 88%
[2]
  pest or weed control at 1000 ppm: 92%
Fusarium proliferatum; [9]
  inhibition at 50 µM: 83%
Fusarium proliferatum; [10]
  inhibition at 50 µM: 100%
Rhynchosporium secalis
  pest or weed control at 1000 ppm: 88%
Fusarium graminearum [3]
  pest or weed control at 1000 ppm: 100%
Botrytis cinerea
  pest or weed control at 250 ppm: 100%
Sphaerotheca fuliginea [4]
  pest or weed control at 500 ppm: 100%
Alternaria solani
  pest or weed control at 500 ppm: 95%
Fusarium graminearum [5]; [7]
  inhibition at 50 µM: 97%
Fusarium graminearum [5]; [8]
  inhibition at 50 µM: 100%
Septoria tritici
  pest or weed control at 1000 ppm: 100%
Aspergillus parasiticus; 50 μM, 7 days at 20° C., read-out: Inhibition der Aflatoxin produktion bei 50 μM
  inhibition at 50 µM: 100%
Aspergillus parasiticus; read-out: % Inhibition des Pilzwachstums bei 50 μM
  inhibition at 50 µM: 97%

## N#Cc1ccccc1Cn1cc(-c2ccncc2)c(-c2ccc(F)cc2)n1 [Compound 136]
physchem; [6]
  chromatographic logP: 1.49
Pyrenophora teres
  pest or weed control at 500 ppm: 71%
Sphaerotheca fuliginea [1]
  pest or weed control at 500 ppm: 91%
Sphaerotheca fuliginea [4]
  pest or weed control at 500 ppm: 73%
Rhizoctonia solani
  pest or weed control at 250 ppm: 97%
Alternaria solani
  pest or weed control at 500 ppm: 95%
Peronospora parasitica
  pest or weed control at 500 ppm: 94%
Pyricularia oryzae
  pest or weed control at 250 ppm: 80%

## CCC(=O)Nc1cc(-c2cn(C3CCCCO3)nc2-c2ccc(F)cc2)ccn1 (stereo not drawn) [Compound 19]
physchem; [6]
  chromatographic logP: 2.32
Pyrenophora teres
  pest or weed control at 500 ppm: 83%
Fusarium proliferatum; [9]
  inhibition at 50 µM: 68%
Fusarium proliferatum; [10]
  inhibition at 50 µM: 100%
Peronospora parasitica
  pest or weed control at 500 ppm: 100%

## O=C(Nc1cc(-c2cn(CC(F)F)nc2-c2ccc(F)cc2)ccn1)C1CC1 [Compound 217]
physchem; LogPA
  chromatographic logP: 2.07
Venturia inaequalis
  pest or weed control at 100 ppm: 98%
Fusarium proliferatum; [9]
  inhibition at 50 µM: 97%
Fusarium proliferatum; [10]
  inhibition at 50 µM: 100%
Botrytis cinerea
  pest or weed control at 250 ppm: 95%
Sphaerotheca fuliginea [4]
  pest or weed control at 500 ppm: 100%
Rhizoctonia solani
  pest or weed control at 250 ppm: 100%
Cochliobolus miyabeanus
  pest or weed control at 250 ppm: 85%
Pyricularia oryzae
  pest or weed control at 250 ppm: 85%
